# Columns and labels:
# Assay in all cases: relative viability (nuclei count vs DMSO), 5 days (fraction); higher = more cells survive
# NCI-H1355 = test system: NCI-H1355
# Procedure, shortened: (§1)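 Lung cancer cell lines, seeded in 1536-well plates, were treated the following day by pin tool with a single drug or with five library-drug doses (not always all listed) in √10 steps on top of a fixed anchor-drug dose. Cells were fixed and nuclei stained in one step after 5 days, and nuclei were counted. Relative viability is the nuclei count for treated wells divided by that for vehicle wells, reported as medians of duplicate plates.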
# A-427 = test system: A-427
# Procedure, shortened: as §1
# NCI-H2228 = test system: NCI-H2228
# Procedure, shortened: as §1
# PC-3 [JPC-3] = test system: PC-3 [JPC-3]
# Procedure, shortened: as §1
# LCLC-97TM1 = test system: LCLC-97TM1
# Procedure, shortened: as §1
# LK-2 = test system: LK-2
# Procedure, shortened: as §1
# NCI-H1915 = test system: NCI-H1915
# Procedure, shortened: as §1
# NCI-H838 = test system: NCI-H838
# Procedure, shortened: as §1
# NCI-H1666 = test system: NCI-H1666
# Procedure, shortened: as §1
# PC-14 = test system: PC-14
# Procedure, shortened: as §1
# NCI-H2087 = test system: NCI-H2087
# Procedure, shortened: as §1
# NCI-H358 = test system: NCI-H358
# Procedure, shortened: as §1
# NCI-H1792 = test system: NCI-H1792
# Procedure, shortened: as §1
# ABC-1 = test system: ABC-1
# Procedure, shortened: as §1
# UMC-11 = test system: UMC-11
# Procedure, shortened: as §1
# NCI-H661 = test system: NCI-H661
# Procedure, shortened: as §1
# NCI-H322M = test system: NCI-H322M
# Procedure, shortened: as §1
# CAL-12T = test system: CAL-12T
# Procedure, shortened: as §1
# SK-MES-1 = test system: SK-MES-1
# Procedure, shortened: as §1
# NCI-H1651 = test system: NCI-H1651
# Procedure, shortened: as §1
# NCI-H1395 = test system: NCI-H1395
# Procedure, shortened: as §1
# NCI-H2085 = test system: NCI-H2085
# Procedure, shortened: as §1
# H3255 = test system: H3255
# Procedure, shortened: as §1
structure (smiles),measurement,setting,value
Cc1cnc(-c2cnc(NCCNc3ccc(C#N)cn3)nc2-c2ccc(Cl)cc2Cl)[nH]1 + CS(=O)(=O)N1CCN(Cc2cc3nc(-c4cccc5[nH]ncc45)nc(N4CCOCC4)c3s2)CC1 [Pictilisib] (partner 1 µM),relative viability,NCI-H1355; first compound 0.08 µM,0.442
same,relative viability,NCI-H1355; first compound 0.253 µM,0.366
same,relative viability,NCI-H1355; first compound 0.8 µM,0.399
same,relative viability,NCI-H1355; first compound 2.53 µM,0.542
same,relative viability,A-427; first compound 0.08 µM,0.758
same,relative viability,A-427; first compound 0.253 µM,0.705
same,relative viability,A-427; first compound 0.8 µM,0.696
same,relative viability,A-427; first compound 2.53 µM,0.619
same,relative viability,NCI-H2228; first compound 0.08 µM,0.263
same,relative viability,NCI-H2228; first compound 0.253 µM,0.229
same,relative viability,NCI-H2228; first compound 0.8 µM,0.569
same,relative viability,NCI-H2228; first compound 2.53 µM,0.287
same,relative viability,PC-3 [JPC-3]; first compound 0.08 µM,0.772
same,relative viability,PC-3 [JPC-3]; first compound 0.253 µM,0.666
same,relative viability,PC-3 [JPC-3]; first compound 0.8 µM,0.798
same,relative viability,PC-3 [JPC-3]; first compound 2.53 µM,0.79
same,relative viability,LCLC-97TM1; first compound 0.08 µM,0.231
same,relative viability,LCLC-97TM1; first compound 0.253 µM,0.234
same,relative viability,LCLC-97TM1; first compound 0.8 µM,0.158
same,relative viability,LCLC-97TM1; first compound 2.53 µM,0.172
same,relative viability,LK-2; first compound 0.08 µM,0.646
same,relative viability,LK-2; first compound 0.253 µM,0.577
same,relative viability,LK-2; first compound 0.8 µM,0.618
same,relative viability,LK-2; first compound 2.53 µM,1.11
same,relative viability,NCI-H1915; first compound 0.08 µM,0.958
same,relative viability,NCI-H1915; first compound 0.8 µM,0.939
same,relative viability,NCI-H1915; first compound 2.53 µM,1.01
same,relative viability,NCI-H838; first compound 0.08 µM,0.525
same,relative viability,NCI-H838; first compound 0.253 µM,0.552
same,relative viability,NCI-H838; first compound 0.8 µM,0.737
same,relative viability,NCI-H838; first compound 2.53 µM,1.19
same,relative viability,NCI-H1666; first compound 0.08 µM,0.434
same,relative viability,NCI-H1666; first compound 0.253 µM,0.295
same,relative viability,NCI-H1666; first compound 0.8 µM,0.332
same,relative viability,NCI-H1666; first compound 2.53 µM,0.589
same,relative viability,PC-14; first compound 0.08 µM,0.662
same,relative viability,PC-14; first compound 0.253 µM,0.775
same,relative viability,PC-14; first compound 0.8 µM,0.55
same,relative viability,PC-14; first compound 2.53 µM,0.645
same,relative viability,NCI-H2087; first compound 0.08 µM,0.853
same,relative viability,NCI-H2087; first compound 0.253 µM,0.754
same,relative viability,NCI-H2087; first compound 0.8 µM,0.975
same,relative viability,NCI-H2087; first compound 2.53 µM,1.06
same,relative viability,NCI-H358; first compound 0.08 µM,0.301
same,relative viability,NCI-H358; first compound 0.8 µM,0.389
same,relative viability,NCI-H358; first compound 2.53 µM,0.264
same,relative viability,NCI-H1792; first compound 0.08 µM,0.34
same,relative viability,NCI-H1792; first compound 0.253 µM,0.268
same,relative viability,NCI-H1792; first compound 0.8 µM,0.25
same,relative viability,NCI-H1792; first compound 2.53 µM,0.385
same,relative viability,ABC-1; first compound 0.08 µM,1
same,relative viability,ABC-1; first compound 0.253 µM,0.584
same,relative viability,ABC-1; first compound 0.8 µM,0.75
same,relative viability,ABC-1; first compound 2.53 µM,0.744
same,relative viability,UMC-11; first compound 0.08 µM,0.871
same,relative viability,UMC-11; first compound 0.253 µM,0.777
same,relative viability,UMC-11; first compound 0.8 µM,0.496
same,relative viability,UMC-11; first compound 2.53 µM,0.859
same,relative viability,NCI-H661; first compound 0.08 µM,0.476
same,relative viability,NCI-H661; first compound 0.253 µM,0.395
same,relative viability,NCI-H661; first compound 0.8 µM,0.476
same,relative viability,NCI-H661; first compound 2.53 µM,0.393
same,relative viability,NCI-H322M; first compound 0.08 µM,0.59
same,relative viability,NCI-H322M; first compound 0.253 µM,0.523
same,relative viability,NCI-H322M; first compound 0.8 µM,0.413
same,relative viability,NCI-H322M; first compound 2.53 µM,0.538
same,relative viability,CAL-12T; first compound 0.253 µM,0.52
same,relative viability,CAL-12T; first compound 2.53 µM,0.53
same,relative viability,SK-MES-1; first compound 0.08 µM,0.406
same,relative viability,SK-MES-1; first compound 0.253 µM,0.378
same,relative viability,SK-MES-1; first compound 0.8 µM,0.38
same,relative viability,SK-MES-1; first compound 2.53 µM,0.403
same,relative viability,NCI-H1651; first compound 0.08 µM,0.67
same,relative viability,NCI-H1651; first compound 0.253 µM,0.485
same,relative viability,NCI-H1651; first compound 0.8 µM,0.524
same,relative viability,NCI-H1651; first compound 2.53 µM,0.686
same,relative viability,NCI-H1395; first compound 0.08 µM,0.759
same,relative viability,NCI-H1395; first compound 0.253 µM,0.585
same,relative viability,NCI-H1395; first compound 0.8 µM,0.601
same,relative viability,NCI-H1395; first compound 2.53 µM,0.65
same,relative viability,NCI-H2085; first compound 0.08 µM,0.551
same,relative viability,NCI-H2085; first compound 0.253 µM,0.517
same,relative viability,NCI-H2085; first compound 0.8 µM,0.455
same,relative viability,NCI-H2085; first compound 2.53 µM,0.43
same,relative viability,H3255; first compound 0.08 µM,0.554
same,relative viability,H3255; first compound 0.253 µM,0.463
same,relative viability,H3255; first compound 0.8 µM,0.469
same,relative viability,H3255; first compound 2.53 µM,0.476
